Laboratory results reported in the supplement of paper PMC10307832.

Legend:
Test in all cases: relative viability (nuclei count vs DMSO), 5 days (fraction); higher = more cells survive
Crenolanib + Vorinostat = compound: CC1(COc2ccc3c(c2)ncn3-c2ccc3cccc(N4CCC(N)CC4)c3n2)COC1 [Crenolanib] + O=C(CCCCCCC(=O)Nc1ccccc1)NO [Vorinostat] (partner 1 µM)
Summary of the method: (§1)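 Lung cancer cell lines were seeded in 1536-well plates and dosed by pin tool the next day, with either a single drug or a fixed anchor-drug dose combined with five library-drug doses (not always all listed) spaced in √10 steps. Five days later, one step fixed the cells and stained their nuclei (final 0.05% Triton X-100, 1% formaldehyde, 1 ug/ml Hoechst), and nuclei were counted on 4× images. Relative viability is the nuclei count in treated wells divided by the count in vehicle wells, and each value is the median of duplicate plates.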

Crenolanib + Phenformin = compound: CC1(COc2ccc3c(c2)ncn3-c2ccc3cccc(N4CCC(N)CC4)c3n2)COC1 [Crenolanib] + N=C(N)NC(=N)NCCc1ccccc1 [Phenformin] (partner 250 µM)
Summary of the method: as §1

Tivantinib + Vorinostat = compound: O=C1NC(=O)[C@@H](c2cn3c4c(cccc24)CCC3)[C@@H]1c1c[nH]c2ccccc12 [Tivantinib] + O=C(CCCCCCC(=O)Nc1ccccc1)NO [Vorinostat] (partner 1 µM)
Summary of the method: as §1

Tivantinib + Lapatinib = compound: O=C1NC(=O)[C@@H](c2cn3c4c(cccc24)CCC3)[C@@H]1c1c[nH]c2ccccc12 [Tivantinib] + CS(=O)(=O)CCNCc1ccc(-c2ccc3ncnc(Nc4ccc(OCc5cccc(F)c5)c(Cl)c4)c3c2)o1 [Lapatinib] (partner 2 µM)
Summary of the method: as §1

Cell Line	relative viability (Crenolanib + Vorinostat; first compound 0.01 µM)	relative viability (Crenolanib + Vorinostat; first compound 0.03162 µM)	relative viability (Crenolanib + Vorinostat; first compound 0.1 µM)	relative viability (Crenolanib + Vorinostat; first compound 0.3162 µM)	relative viability (Crenolanib + Vorinostat; first compound 1 µM)	relative viability (Crenolanib + Phenformin; first compound 0.01 µM)	relative viability (Crenolanib + Phenformin; first compound 0.03162 µM)	relative viability (Crenolanib + Phenformin; first compound 0.1 µM)	relative viability (Crenolanib + Phenformin; first compound 0.3162 µM)	relative viability (Crenolanib + Phenformin; first compound 1 µM)	relative viability (Tivantinib + Vorinostat; first compound 0.01 µM)	relative viability (Tivantinib + Vorinostat; first compound 0.03162 µM)	relative viability (Tivantinib + Vorinostat; first compound 0.1 µM)	relative viability (Tivantinib + Vorinostat; first compound 0.3162 µM)	relative viability (Tivantinib + Lapatinib; first compound 0.01 µM)	relative viability (Tivantinib + Lapatinib; first compound 0.03162 µM)	relative viability (Tivantinib + Lapatinib; first compound 0.1 µM)	relative viability (Tivantinib + Lapatinib; first compound 0.3162 µM)
NCI-H1993	0.956	0.728	0.777	0.797	0.729	0.486	0.513	0.493	0.533	0.499	0.84	0.704	0.728	0.66	0.94	0.74	0.706	0.852
CAL-12T	0.781	0.67	0.631	0.966	0.66	0.533	0.575	0.545	0.598	0.538	0.67	0.874	0.74	0.568	0.723	0.62	0.644	0.424
NCI-H1623	–	–	–	–	–	0.592	0.595	0.543	0.585	0.553	–	–	–	–	–	–	–	–
HCC-78	0.441	0.424	0.493	0.433	0.386	0.783	0.604	–	0.791	0.555	0.48	0.408	0.346	0.337	0.477	0.786	0.647	0.456
EKVX	0.928	0.752	0.722	0.888	0.654	0.223	0.224	0.24	0.241	0.23	0.732	0.725	0.704	0.383	0.194	0.225	0.225	0.176
NCI-H1666	1.1	1.01	0.991	1.09	1.06	0.56	0.57	0.565	0.557	0.541	1.04	0.915	1	0.913	0.743	0.609	0.574	0.574
NCI-H1944	0.586	0.591	0.491	0.693	0.4	0.217	0.222	0.221	0.202	0.177	0.565	0.448	0.501	0.492	0.832	0.742	0.895	0.906
NCI-H1734	0.852	0.801	0.786	0.946	0.757	0.38	0.405	0.387	0.421	0.39	0.8	0.745	0.768	0.818	1.01	0.938	1.05	1.01
Calu-6	–	–	–	–	–	–	–	–	–	–	–	–	–	–	1.08	1.02	1.02	0.965
EBC-1	–	–	–	–	–	–	–	–	–	–	–	–	–	–	0.205	0.248	0.194	0.201
A-427	0.848	–	0.848	0.946	0.83	0.366	0.372	0.311	0.255	0.244	0.859	0.938	0.842	0.85	1	1.12	0.989	1.12
NCI-H2405	1.03	–	0.93	1.12	0.706	0.359	0.394	–	0.284	0.362	1.17	1.04	1	1.26	1.11	1.13	1.06	1.08
NCI-H1437	0.843	0.868	0.781	0.857	0.628	0.33	0.316	0.301	0.31	0.29	0.877	0.82	0.829	0.853	0.797	0.635	0.691	0.795
NCI-H358	0.784	0.71	0.633	0.729	0.611	0.372	0.321	0.3	0.292	0.239	0.704	0.567	0.658	0.233	0.53	0.42	0.418	0.403
RERF-LC-KJ	0.759	0.707	0.664	0.689	0.711	0.442	0.44	0.423	0.463	0.446	0.717	0.628	0.717	0.502	0.911	0.9	0.872	0.759
NCI-H23	0.722	0.565	0.621	0.517	0.459	0.887	0.855	0.753	0.841	0.669	0.679	0.527	0.624	0.671	1.05	1.22	1.03	1.18
IA-LM	1.06	0.971	0.956	0.905	0.678	–	–	–	–	–	1.01	0.826	0.87	0.895	0.871	0.882	0.669	0.771
HCC-15	0.954	0.888	0.844	0.877	0.775	0.51	0.506	0.447	0.469	0.327	0.827	0.82	0.795	0.793	0.815	0.846	0.873	0.829
PC-14	0.95	0.678	0.704	0.875	0.633	0.628	0.46	0.544	0.473	0.314	0.832	0.821	0.755	0.356	0.307	0.35	0.3	0.325
NCI-H1792	–	–	–	–	–	0.185	0.351	0.244	0.282	0.317	–	–	–	–	0.91	0.939	0.822	0.964
HCC-827	0.985	0.837	0.809	0.7	0.753	0.446	0.401	0.427	0.445	0.403	0.826	0.809	0.862	–	0.213	0.211	0.176	0.165
